{
  "source": "BindingDB's records for PubMed 35033884",
  "about": "(Indian Institute of Technology (B.H.U.), 2022)",
  "assay": "Inhibition of PDK1 (unknown origin)",
  "data": [
    {"smiles": "NC(=O)Nc1ccc2c(c1)/C(=C/c1cc(-c3ccccn3)c[nH]1)C(=O)N2", "values": [
      {"measurement": "IC50", "value": 8, "unit": "nM"}
    ]},
    {"smiles": "CN(C)CCNC(=O)c1cccc(-c2c[nH]c(/C=C3\\C(=O)Nc4ccc(NC(N)=O)cc43)c2)c1", "note": "[3-(5-{[(3Z)-5-(carbamoylamino)-2-oxo-2,3-dihydro-1H-indol-3-ylidene]methyl}-1H-pyrrol-3-yl)-N-[2-(dimethylamino)ethyl]benzamide]", "values": [
      {"measurement": "IC50", "value": 4, "unit": "nM"}
    ]},
    {"smiles": "C/C(=C1/C(=O)Nc2ccc(NC(N)=O)cc21)c1cc(CNC(=O)C2CCNCC2)c[nH]1", "note": "[N-[(5-{1-[(3Z)-5-(carbamoylamino)-2-oxo-2,3-dihydro-1H-indol-3-ylidene]ethyl}-1H-pyrrol-3-yl)methyl]piperidine-4-carboxamide]", "values": [
      {"measurement": "IC50", "value": 6, "unit": "nM"}
    ]},
    {"smiles": "NC(=O)Nc1ccc2c(c1)/C(=C/c1ccc[nH]1)C(=O)N2", "note": "[indolinone based inhibitor, 3l]", "values": [
      {"measurement": "IC50", "value": 20, "unit": "nM"}
    ]}
  ]
}
